Data set [1] concerns the target T1, CHOK1 cells engineered to overexpress human CCR2 (Homo sapiens, UniProt P41597).
T1 construct: expressed in transfected cells; host or cells: CHOK1 cells
As to the kind of experiment: Antibody dependent cellular cytotoxicity (ADCC) reporter assay. The note with it: with anti-cotinine antibody (SEQ ID NO: 11/12, human IgG1 Fc S239D/I332E); Jurkat FcγRIIIa NFAT-luciferase reporter cells; 12-18 hours; average if more than one run; read-out: ADCC Reporter Assay pEC50 (converted). The class given is cell-based. How it is done: An antibody dependent cellular cytoxocity reporter assay was conducted using the following four assay components: (i) ARM compound of Formula (I) targeting CCR2 (concentrations ranging from 1 pM to 10 μM) (ii) anti-cotinine antibody having a heavy chain sequence of SEQ ID NO: 11 and a light chain sequence of SEQ ID NO: 12 (rabbit variable region with human IgG1 Fc domain containing a DE mutation (S239D/I332E)) (concentrations ranging from 0.01 μg/mL to 200 μg/mL); (iii) target cells: CHOK1 cells engineered to overexpress either human CCR2 (typically 1000-20,000 cells perwell) and (iv) reporter cells: Jurkat cells engineered to express FcγRIIIa with the reporter gene luciferase under the control of the NFAT promoter (typically 3000-75,000 cells per well). Reagents were combined in a final volume of 20 μL in a 384—well tissue culture treated plate. All four assay components were incubated together for about 12-18 hours. Thereafter, BioGlo Detection reagent (Promega) was added to the wells to lyse the cells and provide a substrate for the luciferase reporter protein. Luminescence signal was measured on a microplate reader and signal:background was calculated by dividing the signal of a test well by the signal obtained when no ARM compound of Formula (I) was added. EC50 calculations were done using Graphpad Prism Software, specifically a nonlinear regression curve fit (Y=Bottom+(Top−Bottom)/(1+10 ^((Log EC50−X)*HillSlope))).
ARMs compounds of Formula (I) of the invention were tested for ADCC activity in the above assay in or more experimental runs and the results are shown in Table 3 below. Potency of the compounds of Formula (I) of the invention is reported as a pEC50 value. The pEC50 value is the negative log of the EC50 value, wherein the EC50 value is the half maximal effective concentration measured in molar (M). For compounds tested in more than one experimental run, the pEC50 value is reported as an average.
In general terms: A reporter such as luciferase makes a cellular process visible.

Data set [2] has as its system CCR2 expressing cells (CD11b+Ly6c+Hi monocytes). As to the kind of experiment: In vivo depletion assay (flow cytometry of peripheral blood). Further details: species or system human CCR2 (hCCR2) knock-in mice. The note with it: IV bolus 0.1 mpk compound + 10 mpk anti-cotinine antibody (mouse IgG2a Fc), 48 hours. As for the experimental part:
(§1) Human CCR2 (hCCR2) knock-in mice (C57 background) were dosed intravenously with a PBS solution containing a compound of Formula (I) to measure depletion of CCR2 expressing cells in peripheral blood. Peripheral blood from IV dosed mice was also analyzed to determine PK properties of the compounds of Formula (I).
Formulations preparation: On the day of experiment, the stock solution of the compound of Formula (I) was removed from storage at −20° C. and thawed at room temperature. Anti-cotinine antibody having a heavy chain sequence of SEQ ID NO: 13 and a light chain sequence of SEQ ID NO: 14 (rabbit variable region sequence with mouse IgG2a Fc domain), if required was removed from storage at −80° C. and thawed at room temperature. Antibody vials were immediately transferred into wet ice after thawing. Compounds of Formula (I) were further diluted in DMSO as per experimental requirements.
Formulation composition: The formulation composition was Saline: DMSO: PBS. Saline was added based on the quantity required and then stock solution of the compound of Formula (1) prepared in DMSO, followed by addition of antibody in PBS. Formulations were incubated at room temperature for 30 minutes before administration to the mouse. DMSO was used at 1 to 2% (v/v) in the final formulation.
(§2) Administration to Animal: Solution formulation of antibody and compound of Formula (I) was injected (bolus injection) to the restrained mouse in the right/left lateral tail vein. Animals were dosed with 0.1 milligram per kilogram (mpk) of the compound of Formula (I) and 10 mpk of the anti-cotinine antibody.
(§3) Terminal bleeding at end of experiment (48 hr): Approximately 250 μL of blood in K2EDTA tube and approximately 250 μL of blood in SST (serum separation tube) was collected from each mouse through retro-orbital bleeding under deep isoflurane anesthesia. After bleeding, each mouse was sacrificed by cervical dislocation. The blood distribution at termination was determined as follows: • For PK: 50 μL of K2EDTA blood was transferred to another tube for PK • Flow cytometry: Remaining blood (˜200 μL) was used for flow cytometry analysis. • For serum collection: serum separator tubes (BD) were centrifuged at 4° C., 5000 rpm for 15 minutes. Approximately 100 μL serum was separated and stored at −80° C. for further usage. • Blood drug concentration: Samples collected at the various timepoints (0.25 hr, 2 hr, 24 and 48 hr) were analyzed to determine blood drug concentration.
Flow cytometry analysis: CCR2 depletion in peripheral blood was determined by flow cytometry. Briefly, peripheral blood was collected from all animals at the end of study termination and processed. […]
Percent depletion of CD11b+Ly6c+Hi cells and CCR2 expression for the different treatment groups was determined. […]
A general note: In flow cytometry, cells or beads pass a laser one at a time.

A short description of data set [3]: Blood drug concentration analysis (PK) in the in vivo depletion assay. The note with it: human CCR2 (hCCR2) knock-in, C57 background, mouse, whole blood, LC-MS/MS, IV bolus 0.1 mpk compound + 10 mpk anti-cotinine antibody, 48 hours post-dose, read-out: Exposure of Compound of Formula (I) 48 hours post-dose. Further details: species or system human CCR2 (hCCR2) knock-in mice. As for the experimental part:
as §1, §2
Collection of Blood for PK: Blood was collected at time points 0.25 hour, 2 hours, and […] following administration (50 μL/time point) through retro-orbital bleeding under mild isoflurane anesthesia.
as §3
Blood drug concentration analysis: Drug concentration in blood samples was determined by an LC-MS/MS-based bioanalytical method developed at Syngene. Samples were analyzed on Q-Trap, API-5500 LC-MS/MS system coupled with Exion UHPLC system from SCIEX, USA operated in multiple reaction monitoring mode employing electrospray ionization technique in positive polarity. Analyte and internal standard peaks were resolved on Synergi Polar, 75×2.0 mm, 4 μcolumn using mobile phase 10 mM Ammonium acetate in Milli-Q water as phase A and 0.1% Formic acid in acetonitrile as Phase B. Gradient elution was performed with initial composition 95% Phase A at 0.0 min, holding it for 0.2 minutes, ramping to 5% by 1.0 minute, keeping the same for next 0.5 minutes and coming back to 95% by 1.6 minutes. The total run time was 2 minutes.
Working dilutions for calibration curve and quality control standards were prepared by serially diluting 20 mg/mL stock solution with DMSO. Spiked concentrations for calibration curve in the whole blood ranged from 1 ng/mL to 1000 ng/mL. […]

The target of data set [4] is human alpha1 nicotinic acetylcholine (nACh) receptor (Homo sapiens, UniProt P02708+Q07001). As to the kind of experiment: Nicotinic acetylcholine receptor antagonism assay (IONFlux automated patch clamp). The class given is cell-based. An excerpt: Cells expressing human alpha1 nicotinic acetylcholine (nACh) receptor (nAChR) were washed and dissociated using Trypsin containing buffer. Cells were then washed and seeded at a density of 3-5 million cells/mL and allowed to grow for 3 days. […] The receptor was then stimulated via addition of acetylcholine (ACh) and activation of the receptor was monitored via the IONFlux automated patch clamp system. IonFlux Data Analyzer software was utilized to perform leak subtraction and measure (min) peak current amplitude.
Data processing: (1) Current values recorded for vehicle only applications in individual traps/patterns were subtracted from corresponding current amplitude values for control, test article and control+test article. (2) Control response was calculated as % of the average response of the 3rd out of total 3 ACh (10 mM) applications alone. In rare situations, if the 3rd ACh response was obscured due to technical artifacts, the 2nd and/or 1st ACh (10 mM) application was considered as control. The peak current amplitude generated in the presence of each test article concentration was then used to calculate the % inhibition as compared to control response (10 mM ACh alone). These estimates were further corrected for vehicle response and run down corrected by normalizing with time matched control responses (10 mM ACh alone). The corrected percentages were then fit with a non-linear function in GraphPad Prism 6 (or later versions) to determine the IC50.
Exclusion criteria: (i) any n's with poor recording quality, (ii) control current amplitude <500 pA or (iii) significant outliers, as determined by the Grubbs' test.
ARMs compounds of Formula (I) of the invention were tested for antagonism of the nAChR in the above assay in […] experimental runs and the results are shown in Table 5 below. Antagonistic activity of the compounds of Formula (I) of the invention is reported as an IC50 value (half maximal inhibitory concentration) and the maximum percentage antagonism observed at the highest concentration of compound of Formula (I) tested, as indicated in Table 5. For compounds tested in more than one experimental run, the IC50 value is reported as an average.

Experimental findings from patent publication US20250057958A1, “CYTOTOXICITY TARGETING CHIMERAS FOR CCR2-EXPRESSING CELLS” (GLAXOSMITHKLINE INTELLECTUAL PROPERTY DEVELOPMENT LIMITED, priority 2022, published 2025) are described below.

Molecules are shown by their SMILES. Where only a bound is given, the exact number is not on record here.

The term IC50 denotes the concentration at which inhibition is half-maximal. The low end stands for greater potency in that assay, the high end for weaker potency in that assay.

Sequence of human alpha1 nicotinic acetylcholine (nACh) receptor (P02708 21-457): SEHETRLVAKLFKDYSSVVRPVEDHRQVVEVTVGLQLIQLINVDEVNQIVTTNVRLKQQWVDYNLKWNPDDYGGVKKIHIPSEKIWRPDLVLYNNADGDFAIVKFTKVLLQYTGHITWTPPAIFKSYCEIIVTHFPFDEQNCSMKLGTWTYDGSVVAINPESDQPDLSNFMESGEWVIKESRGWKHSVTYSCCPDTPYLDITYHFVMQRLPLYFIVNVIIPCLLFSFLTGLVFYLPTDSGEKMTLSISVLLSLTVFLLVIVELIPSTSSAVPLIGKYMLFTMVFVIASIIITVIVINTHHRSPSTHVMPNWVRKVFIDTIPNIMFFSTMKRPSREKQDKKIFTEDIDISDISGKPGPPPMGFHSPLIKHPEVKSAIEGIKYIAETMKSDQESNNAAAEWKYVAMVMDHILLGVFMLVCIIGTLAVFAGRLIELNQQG
Sequence of human alpha1 nicotinic acetylcholine (nACh) receptor (P11230 24-501 partner): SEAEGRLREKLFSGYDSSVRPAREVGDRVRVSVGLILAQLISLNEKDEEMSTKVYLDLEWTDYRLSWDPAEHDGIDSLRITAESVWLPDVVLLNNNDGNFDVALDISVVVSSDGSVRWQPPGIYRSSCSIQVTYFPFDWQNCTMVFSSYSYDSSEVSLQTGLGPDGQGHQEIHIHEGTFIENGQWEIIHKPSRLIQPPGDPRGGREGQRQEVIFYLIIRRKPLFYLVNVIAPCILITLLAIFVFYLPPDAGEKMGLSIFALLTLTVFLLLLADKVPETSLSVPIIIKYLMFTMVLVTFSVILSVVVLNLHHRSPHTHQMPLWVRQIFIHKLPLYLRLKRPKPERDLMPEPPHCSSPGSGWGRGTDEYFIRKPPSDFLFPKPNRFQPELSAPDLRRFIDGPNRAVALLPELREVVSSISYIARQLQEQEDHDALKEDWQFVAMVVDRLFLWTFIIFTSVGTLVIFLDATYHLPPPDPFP
Sequence of human alpha1 nicotinic acetylcholine (nACh) receptor (Q07001 22-517): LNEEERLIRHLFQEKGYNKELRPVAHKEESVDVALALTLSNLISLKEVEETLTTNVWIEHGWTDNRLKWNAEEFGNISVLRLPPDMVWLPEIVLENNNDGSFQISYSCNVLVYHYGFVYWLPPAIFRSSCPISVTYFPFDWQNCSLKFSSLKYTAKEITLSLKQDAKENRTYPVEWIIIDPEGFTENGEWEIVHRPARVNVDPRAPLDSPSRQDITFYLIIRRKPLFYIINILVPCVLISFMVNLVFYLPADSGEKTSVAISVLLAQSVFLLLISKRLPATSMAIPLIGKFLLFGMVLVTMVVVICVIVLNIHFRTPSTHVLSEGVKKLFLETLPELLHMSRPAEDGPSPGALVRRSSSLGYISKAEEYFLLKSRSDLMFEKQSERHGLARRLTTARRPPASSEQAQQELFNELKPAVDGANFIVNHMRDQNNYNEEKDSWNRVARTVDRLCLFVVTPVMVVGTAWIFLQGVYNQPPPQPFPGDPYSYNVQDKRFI

With `CC(=O)N[C@@H]1C[C@H](NC(C)(C)C)CC[C@@H]1N1CC[C@H](Nc2nc(CCCNC(=O)[C@H]3CC[C@H](NC(=O)CCCO[C@H]4CC[C@H](OCCNC(=O)[C@H]5CC(=O)N(C)[C@@H]5c5cccnc5)CC4)CC3)nc3ccc(C(F)(F)F)cc23)C1=O` [Example 1, (2S,3S)—N-(2-(((1R,4S)-4-(4-(((1S,4R)-4-((3-(4-(((S)-1-((1S,2R,4R)-2-Acetamido-4-(tert-butylamino)cyclohexyl)-2-oxopyrrolidin-3-yl)amino)-6-(trifluoromethyl)quinazolin-2-yl)propyl)carbamoyl)cyclohexyl)amino)-4-oxobutoxy)cyclohexyl)oxy)ethyl)-1-methyl-5-oxo-2-(pyridin-3-yl)pyrrolidine-3-carboxamide], the EC50 in data set [1] is 0.158 nM. In addition, the “% Depletion of CCR2 expressing cells” value in data set [2] is reported as 89.18%. Further, in data set [3], the concentration at 48 h stood at 42.9 ng/mL.

Take `CC(=O)N[C@@H]1C[C@H](NC(C)(C)C)CC[C@@H]1N1CC[C@H](Nc2nc(COCCNC(=O)[C@H]3CC[C@H](NC(=O)CCCO[C@H]4CC[C@H](OCCNC(=O)[C@H]5CC(=O)N(C)[C@@H]5c5cccnc5)CC4)CC3)nc3ccc(C(F)(F)F)cc23)C1=O` [Example 14, (2S,3S)-N-(2-(((1R,4S)-4-(4-(((1S,4R)-4-((2-((4-(((S)-1-((1S,2R,4R)-2-acetamido-4-(tert-butylamino)cyclohexyl)-2-oxopyrrolidin-3-yl)amino)-6-(trifluoromethyl)quinazolin-2-yl)methoxy)ethyl)carbamoyl)cyclohexyl)amino)-4-oxobutoxy)cyclohexyl)oxy)ethyl)-1-methyl-5-oxo-2-(pyridin-3-yl)pyrrolidine-3-carboxamide]: the EC50 in data set [1] was 0.501 nM. Also, the Emax at 100 µM in data set [4] (maximum percentage antagonism at highest concentration tested, 100 μM, read-out: Maximum Response (%)) amounted to 54%. In addition, the 50% inhibitory concentration (IC50) in data set [4] (nAChR antagonism, stimulated with ACh, average if more than one run) is > 100000 nM.
